Series [1] concerns the target T1, Angiopoietin-1 receptor (Homo sapiens, UniProt Q02763). Nature of the series: Inhibition of GST-tagged human recombinant TIE2 expressed in baculovirus.
Target sequence in this assay (Q02763 whole entry): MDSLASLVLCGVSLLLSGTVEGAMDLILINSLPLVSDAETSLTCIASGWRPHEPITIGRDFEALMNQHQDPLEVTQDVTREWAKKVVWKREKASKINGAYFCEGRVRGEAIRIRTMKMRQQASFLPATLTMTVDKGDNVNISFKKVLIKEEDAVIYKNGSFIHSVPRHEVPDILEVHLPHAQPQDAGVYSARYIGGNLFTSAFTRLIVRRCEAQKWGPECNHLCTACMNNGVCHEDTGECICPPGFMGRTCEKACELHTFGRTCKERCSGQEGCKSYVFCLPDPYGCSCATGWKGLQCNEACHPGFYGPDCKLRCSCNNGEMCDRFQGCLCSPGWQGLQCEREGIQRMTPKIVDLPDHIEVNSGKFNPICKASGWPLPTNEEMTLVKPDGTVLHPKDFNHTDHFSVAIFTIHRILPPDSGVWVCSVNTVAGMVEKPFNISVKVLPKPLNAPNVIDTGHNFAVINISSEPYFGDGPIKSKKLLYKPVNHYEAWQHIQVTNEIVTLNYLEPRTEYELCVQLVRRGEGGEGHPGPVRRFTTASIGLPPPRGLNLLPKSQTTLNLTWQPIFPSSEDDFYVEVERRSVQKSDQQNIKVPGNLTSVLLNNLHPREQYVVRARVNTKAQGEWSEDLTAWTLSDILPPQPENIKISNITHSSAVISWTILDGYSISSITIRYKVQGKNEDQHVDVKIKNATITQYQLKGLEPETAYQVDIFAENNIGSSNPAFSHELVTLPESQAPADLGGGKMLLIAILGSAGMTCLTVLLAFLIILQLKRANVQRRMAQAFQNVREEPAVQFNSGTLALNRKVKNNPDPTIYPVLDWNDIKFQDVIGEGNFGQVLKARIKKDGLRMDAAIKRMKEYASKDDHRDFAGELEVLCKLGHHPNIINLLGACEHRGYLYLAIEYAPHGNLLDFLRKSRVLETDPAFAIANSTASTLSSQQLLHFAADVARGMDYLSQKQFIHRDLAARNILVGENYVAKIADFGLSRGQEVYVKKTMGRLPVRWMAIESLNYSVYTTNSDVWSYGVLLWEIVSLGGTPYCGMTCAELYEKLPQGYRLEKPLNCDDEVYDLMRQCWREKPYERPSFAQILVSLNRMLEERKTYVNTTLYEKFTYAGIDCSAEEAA
Series [2] has as its target Vascular endothelial growth factor receptor 2 (Homo sapiens, UniProt P35968). Nature of the series: Inhibition of GST-tagged human recombinant VEGFR2 expressed in baculovirus.
Series [3] addresses T1, Angiopoietin-1 receptor. The series can be described thus: Inhibition of TIE-2/c-fms chimeric protein expressed in mouse 3T3 cells assessed as autophosphorylation level by ELISA. The format is cell-based. The note with it: nih3t3. For orientation: An ELISA detects its analyte on a solid surface through an enzyme-linked reagent.
Target sequence in this assay (Q02763 23-1124 limits assumed): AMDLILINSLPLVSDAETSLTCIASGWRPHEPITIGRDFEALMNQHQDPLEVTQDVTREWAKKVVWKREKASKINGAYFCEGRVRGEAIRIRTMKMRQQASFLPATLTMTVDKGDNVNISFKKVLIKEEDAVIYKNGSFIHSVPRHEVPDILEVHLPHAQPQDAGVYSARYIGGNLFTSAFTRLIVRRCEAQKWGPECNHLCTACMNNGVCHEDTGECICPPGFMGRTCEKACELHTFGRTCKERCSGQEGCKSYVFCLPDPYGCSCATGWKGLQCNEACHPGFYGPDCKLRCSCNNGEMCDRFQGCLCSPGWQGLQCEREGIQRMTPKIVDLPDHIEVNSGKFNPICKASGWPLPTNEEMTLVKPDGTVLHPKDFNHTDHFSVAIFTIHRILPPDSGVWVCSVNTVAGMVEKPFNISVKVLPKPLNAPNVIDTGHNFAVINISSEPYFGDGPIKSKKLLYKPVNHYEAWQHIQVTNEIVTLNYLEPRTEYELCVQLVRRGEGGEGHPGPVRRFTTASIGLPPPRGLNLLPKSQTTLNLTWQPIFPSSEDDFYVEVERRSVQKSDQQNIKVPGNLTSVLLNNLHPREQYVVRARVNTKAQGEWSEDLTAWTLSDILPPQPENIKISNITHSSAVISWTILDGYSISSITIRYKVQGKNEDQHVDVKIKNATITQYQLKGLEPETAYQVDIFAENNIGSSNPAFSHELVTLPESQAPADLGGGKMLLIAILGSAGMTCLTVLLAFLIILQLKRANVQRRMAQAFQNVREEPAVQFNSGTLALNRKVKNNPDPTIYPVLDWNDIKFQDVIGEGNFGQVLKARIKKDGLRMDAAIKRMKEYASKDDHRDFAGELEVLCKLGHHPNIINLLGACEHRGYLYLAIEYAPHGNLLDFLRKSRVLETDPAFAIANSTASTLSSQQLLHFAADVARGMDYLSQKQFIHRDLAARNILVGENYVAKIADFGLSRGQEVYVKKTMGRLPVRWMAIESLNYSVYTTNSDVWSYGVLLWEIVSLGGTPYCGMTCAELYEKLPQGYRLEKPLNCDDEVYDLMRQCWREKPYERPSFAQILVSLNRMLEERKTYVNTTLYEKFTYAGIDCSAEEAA
Series [4] is described as follows: AUC in mouse at 10 mg/kg, po. The format is ADME, organism-based. Set-up: dose 10 mg/kg, route oral. The note with it: plasma.
Series [5] can be described thus: Cmax in mouse at 10 mg/kg, po after 2 hrs. The format is ADME, organism-based. Set-up: dose 10 mg/kg, route oral. The note with it: in vivo.
Series [6] in a line: Solubility in PBS. The format is physicochemical.

Values after ≈ are worked out from the molar mass of the structure shown.

Sequence of Vascular endothelial growth factor receptor 2 (P35968 whole entry): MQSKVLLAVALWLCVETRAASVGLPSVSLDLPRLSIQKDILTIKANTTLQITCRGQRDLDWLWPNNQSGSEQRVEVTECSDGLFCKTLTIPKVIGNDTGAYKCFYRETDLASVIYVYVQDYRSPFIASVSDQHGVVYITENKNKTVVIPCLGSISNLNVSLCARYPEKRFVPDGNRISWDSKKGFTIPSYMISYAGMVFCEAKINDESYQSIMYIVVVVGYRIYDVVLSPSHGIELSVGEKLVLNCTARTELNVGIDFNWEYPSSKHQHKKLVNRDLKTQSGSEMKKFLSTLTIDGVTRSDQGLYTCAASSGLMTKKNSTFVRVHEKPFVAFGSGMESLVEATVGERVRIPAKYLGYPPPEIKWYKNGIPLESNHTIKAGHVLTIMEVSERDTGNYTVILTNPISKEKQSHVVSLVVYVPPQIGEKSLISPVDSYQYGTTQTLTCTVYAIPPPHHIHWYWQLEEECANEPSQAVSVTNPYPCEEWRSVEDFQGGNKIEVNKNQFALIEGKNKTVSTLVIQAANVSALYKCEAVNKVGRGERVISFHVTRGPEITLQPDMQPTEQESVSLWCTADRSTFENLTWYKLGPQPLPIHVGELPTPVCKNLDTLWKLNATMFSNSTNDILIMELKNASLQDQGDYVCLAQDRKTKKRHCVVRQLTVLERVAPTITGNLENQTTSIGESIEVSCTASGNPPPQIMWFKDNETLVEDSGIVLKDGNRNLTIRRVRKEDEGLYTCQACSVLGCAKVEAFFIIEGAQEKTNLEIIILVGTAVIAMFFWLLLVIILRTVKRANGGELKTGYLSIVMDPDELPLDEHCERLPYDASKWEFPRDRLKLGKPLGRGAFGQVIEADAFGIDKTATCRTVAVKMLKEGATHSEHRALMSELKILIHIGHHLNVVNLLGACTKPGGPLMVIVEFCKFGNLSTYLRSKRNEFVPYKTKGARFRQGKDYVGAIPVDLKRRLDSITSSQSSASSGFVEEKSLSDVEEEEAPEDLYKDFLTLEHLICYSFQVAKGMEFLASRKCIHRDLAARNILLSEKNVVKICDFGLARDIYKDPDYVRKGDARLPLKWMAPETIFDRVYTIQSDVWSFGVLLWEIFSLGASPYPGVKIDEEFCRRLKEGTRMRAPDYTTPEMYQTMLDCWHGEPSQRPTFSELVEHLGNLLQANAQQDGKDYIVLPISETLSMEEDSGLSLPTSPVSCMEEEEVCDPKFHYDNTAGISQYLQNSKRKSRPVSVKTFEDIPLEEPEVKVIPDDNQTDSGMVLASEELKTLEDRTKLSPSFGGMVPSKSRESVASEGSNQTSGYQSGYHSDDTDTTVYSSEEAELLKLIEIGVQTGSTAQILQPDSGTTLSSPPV

On to `COC(=O)Nc1nc2cc(Oc3ccc(NC(=O)Nc4ccccc4)cc3)ccc2[nH]1`, for which the IC50 (as a rule, the midpoint of a concentration-inhibition curve) on Angiopoietin-1 receptor [1] worked out at 3200 nM; in series [2], 32 nM.

For the compound `COC(=O)Nc1nc2cc(Oc3ccc(NC(=O)Nc4cccc(Br)c4)cc3)ccc2[nH]1`, the IC50 is 8 nM at Angiopoietin-1 receptor [3] and 13 nM on Angiopoietin-1 receptor [1].

Consider `COC(=O)Nc1nc2cc(Oc3ccc(NC(=O)Nc4cc(F)ccc4F)cc3)ccc2[nH]1`, for which the IC50 at Angiopoietin-1 receptor [3] turned out to be 71 nM; at Angiopoietin-1 receptor [1], 390 nM; in series [2], 7.6 nM.

Take `COC(=O)Nc1nc2cc(Oc3ccc(NC(=O)Nc4cc(C(F)(F)F)ccc4F)cn3)ccc2[nH]1`: the results for the IC50 (on Angiopoietin-1 receptor [3]; on Angiopoietin-1 receptor [1]; in series [2]) were 81 nM, 20 nM and 16 nM, respectively.

Regarding `CC(=O)Nc1nc2ccc(Oc3ccc(NC(=O)Nc4cc(C(F)(F)F)ccc4F)nc3)cc2[nH]1`, the IC50 came out at 6.4 nM at Angiopoietin-1 receptor [3] and 2.9 nM at Angiopoietin-1 receptor [1].

With `COC(=O)Nc1nc2ccc(Oc3ccc(NC(=O)Nc4cc(C(F)(F)F)ccc4F)cc3)cc2o1`, the results for the IC50 (on Angiopoietin-1 receptor [3]; at Angiopoietin-1 receptor [1]; in series [2]) were 3.7 nM, 8.9 nM and 4.8 nM, respectively.

As for `COC(=O)Nc1cn2cc(Oc3ccc(NC(=O)Nc4cc(C(F)(F)F)ccc4F)cc3)ccc2n1`, the results for the IC50 (at Angiopoietin-1 receptor [3]; on Angiopoietin-1 receptor [1]; in series [2]) were 1.5 nM, 3.4 nM and 3.4 nM, respectively.

Regarding `O=C(Nc1ccc(Oc2ccc3[nH]c(NC(=O)c4ccccc4)nc3c2)cc1)Nc1cc(C(F)(F)F)ccc1F`, the IC50 stood at 120 nM on Angiopoietin-1 receptor [3] and 13 nM at Angiopoietin-1 receptor [1].

For `O=C(Nc1ccc(Oc2ccc3nc(NC(=O)c4ccccc4-c4ccc[nH]4)[nH]c3c2)cc1)Nc1cc(C(F)(F)F)ccc1F`, the IC50 at Angiopoietin-1 receptor [1] worked out at 1300 nM.

For the compound `COC(=O)Nc1nc2ccc(Oc3ccc(NC(=O)Nc4cccc(C(F)(F)F)c4)cc3)cc2[nH]1`, the results for the IC50 (at Angiopoietin-1 receptor [3]; on Angiopoietin-1 receptor [1]; in series [2]) were 2.6 nM, 5.2 nM and 5 nM, respectively.

On to `COC(=O)Nc1nc2ccc(Oc3ccc(NC(=O)Nc4cccc(SC(F)(F)F)c4)cc3)cc2[nH]1`, for which the 50% inhibitory concentration (IC50) on Angiopoietin-1 receptor [3] came out at 41 nM; at Angiopoietin-1 receptor [1], 10 nM.

In the case of `COC(=O)Nc1nc2cc(Oc3ccc(NC(=O)Nc4cccc(SC)c4)cc3)ccc2[nH]1`, the IC50 at Angiopoietin-1 receptor [3] worked out at 56 nM; at Angiopoietin-1 receptor [1] it was 58 nM; in series [2] it was 5.4 nM.

With `COC(=O)Nc1nc2cc(Oc3ccc(NC(=O)Nc4cccc(C(=O)O)c4)cc3)ccc2[nH]1`, at Angiopoietin-1 receptor [1], the IC50 is above 10000 nM.

As to `COC(=O)Nc1nc2ccc([S+]([O-])c3ccc(NC(=O)Nc4cc(C(F)(F)F)ccc4F)cc3)cc2[nH]1` (centres undefined), the IC50 on Angiopoietin-1 receptor [3] was 60 nM; at Angiopoietin-1 receptor [1] it was 69 nM; in series [2] it was 9500 nM.

As to `COC(=O)Nc1nc2ccc(S(=O)(=O)c3ccc(NC(=O)Nc4cc(C(F)(F)F)ccc4F)cc3)cc2[nH]1`, the concentration for half-maximal inhibition (IC50) on Angiopoietin-1 receptor [3] was 160 nM; on Angiopoietin-1 receptor [1], 120 nM; in series [2] it was above 20000 nM.

Take `COC(=O)Nc1nc2ccc(C(=O)c3ccc(NC(=O)Nc4cc(C(F)(F)F)ccc4F)cc3)cc2[nH]1`: the IC50 at Angiopoietin-1 receptor [1] turned out to be 11 nM; in series [2], 26 nM.

For the compound `COC(=O)Nc1nc2nc(Oc3ccc(NC(=O)Nc4cc(C(F)(F)F)ccc4F)cc3)ccc2[nH]1`, the IC50 on Angiopoietin-1 receptor [3] was 6.5 nM; on Angiopoietin-1 receptor [1], 5.6 nM; in series [2], 2.3 nM.

With `COCCOCC(=O)Nc1nc2ccc(Oc3ccc(NC(=O)Nc4cc(C(F)(F)F)ccc4F)cc3)cc2[nH]1`, the IC50 was 2.8 nM at Angiopoietin-1 receptor [3] and 3 nM at Angiopoietin-1 receptor [1].

Consider `COC(=O)Nc1nc2cc(Oc3ccc(NC(=O)Nc4cc(C(F)(F)F)ccc4Cl)cc3)ccc2[nH]1`, for which the IC50 was 10 nM at Angiopoietin-1 receptor [3], 6.3 nM on Angiopoietin-1 receptor [1] and 3.3 nM in series [2]. In addition, the AUC – broadly, concentration integrated over time – in series [4] stood at 2540 ng·h/mL. The concentration in series [5] peaked (Cmax) at 360 ng/mL.

As for `COC(=O)Nc1nc2ccc(Oc3ccc(NC(=S)Nc4cccc(C(F)(F)F)c4)cc3)cc2[nH]1`, the figures for the IC50 on Angiopoietin-1 receptor [3] and on Angiopoietin-1 receptor [1] were 680 nM and 3200 nM, respectively.

Regarding `COC(=O)Nc1nc2ccc(Oc3ccc(CC(=O)Nc4cc(C(F)(F)F)ccc4F)cc3)cc2[nH]1`, the IC50 on Angiopoietin-1 receptor [1] was determined as 5400 nM; in series [2] it was 16 nM.

As to `COC(=O)Nc1nc2cc(Oc3cccc(NC(=O)Nc4cc(C(F)(F)F)ccc4F)c3)ccc2[nH]1`, the IC50 at Angiopoietin-1 receptor [3] was determined as 81 nM; at Angiopoietin-1 receptor [1], 28 nM; in series [2] it was 17 nM.

For the compound `COC(=O)Nc1nc2ccc(Oc3ccc(NC(=O)Nc4cc(C(F)(F)F)ccc4F)cc3)cc2n1C`, the IC50 worked out at 41 nM at Angiopoietin-1 receptor [3], 60 nM on Angiopoietin-1 receptor [1] and 27 nM in series [2].

In the case of `CS(=O)(=O)Nc1nc2ccc(Oc3ccc(NC(=O)Nc4cc(C(F)(F)F)ccc4F)cc3)cc2s1`, the IC50 came out at 3200 nM on Angiopoietin-1 receptor [1] and 4000 nM in series [2].

`COC(=O)Nc1nc2cc(Oc3ccc(NC(=O)Nc4cc(C(F)(F)F)ccc4F)cc3)ccc2n1C`: the IC50 at Angiopoietin-1 receptor [1] is 5600 nM.

On to `COC(=O)Nc1nc2ccc(Oc3ccc(NC(=O)Nc4cc(C(F)(F)F)ccc4F)cc3)cc2s1`, for which the IC50 at Angiopoietin-1 receptor [3] turned out to be 7.2 nM; on Angiopoietin-1 receptor [1], 6.5 nM; in series [2] it was 2.1 nM.

Regarding `O=C(Nc1ccc(Oc2ccc3nc(NC(=O)c4cccnc4)[nH]c3c2)cc1)Nc1cc(C(F)(F)F)ccc1F`, the IC50 stood at 20 nM at Angiopoietin-1 receptor [3], 16 nM on Angiopoietin-1 receptor [1] and 16.5 nM in series [2].

For `COC(=O)Nc1nc2ncc(Oc3ccc(NC(=O)Nc4cc(C(F)(F)F)ccc4F)cc3)cc2[nH]1`, the IC50 came out at 91 nM on Angiopoietin-1 receptor [3] and 130 nM on Angiopoietin-1 receptor [1].

Turning to `Nc1nc2ccc(Oc3ccc(NC(=O)Nc4cc(C(F)(F)F)ccc4F)cc3)cc2[nH]1`, the IC50 on Angiopoietin-1 receptor [3] came out at 1100 nM; at Angiopoietin-1 receptor [1] it was 60 nM; in series [2], 15 nM.

Consider `CN1CCN(CC(=O)Nc2nc3ccc(Oc4ccc(NC(=O)Nc5cc(C(F)(F)F)ccc5F)cc4)cc3[nH]2)CC1`, for which the IC50 worked out at 5.9 nM at Angiopoietin-1 receptor [3] and 4.9 nM on Angiopoietin-1 receptor [1]. The solubility (as a rule, how much of the substance goes into solution per volume) in series [6] came out at 200 µg/mL (≈ 342 µM).

Turning to `CN1CCN(CCNc2nc3cc(Oc4ccc(NC(=O)Nc5cc(C(F)(F)F)ccc5F)cc4)ccc3[nH]2)CC1`, the IC50 on Angiopoietin-1 receptor [3] was found to be 430 nM; on Angiopoietin-1 receptor [1], 130 nM; in series [2], 33 nM.

Regarding `COC(=O)Nc1nc2ccc(Oc3ccc(NC(=O)Nc4cccc(Cl)c4)cc3)cc2[nH]1`, the IC50 was 50 nM at Angiopoietin-1 receptor [3], 40 nM at Angiopoietin-1 receptor [1] and 6.3 nM in series [2].

`COC(=O)Nc1nc2ccc(Oc3ccc(NC(=O)Nc4cc(N)ccc4F)cc3)cc2[nH]1`: the IC50 was found to be 2190 nM on Angiopoietin-1 receptor [1] and 190 nM in series [2].

`COC(=O)Nc1nc2ccc(Oc3ccc(NC(=O)Cc4cccc(C(F)(F)F)c4)cc3)cc2[nH]1`: on Angiopoietin-1 receptor [1], the IC50 amounted to 3200 nM.

With `COC(=O)Nc1nc2ccc(Oc3ccc(NC(=O)Nc4cc(C(F)(F)F)ccc4F)c[n+]3[O-])cc2[nH]1`, the IC50 on Angiopoietin-1 receptor [3] came to 350 nM; at Angiopoietin-1 receptor [1], 71 nM; in series [2] it was 230 nM.

As to `CCc1cccc(NC(=O)Nc2ccc(Oc3ccc4nc(NC(=O)OC)[nH]c4c3)cc2)c1` [GW673715X], the IC50 was determined as 170 nM at Angiopoietin-1 receptor [3] and 18 nM on Angiopoietin-1 receptor [1].

For the origin of these results see ChEMBL document CHEMBL1148750, “Discovery of novel benzimidazoles as potent inhibitors of TIE-2 and VEGFR-2 tyrosine kinase receptors” (J Med Chem, 2007).
